Key:
[1] = tested on: IgG in sera containing antibodies against B. burgdorferi proteins; assay: Epitope mapping of DbpB overlapping peptide library, IgG binding; parameters: species or system human; conditions: 8 high titer Lyme disease patient sera; 20-AA library peptides of DbpB, B. burgdorferi B31
Experimental: (§1) Epitope mapping of full-length DbpB was performed by ArrayIt, Corp. (Sunnyvale, Calif.). Briefly, an overlapping peptide library consisting of 20-AA long peptides overlapping by 15-AA (offset by 5-AA) was generated using the sequence for DbpB from B. burgdorferi B31 (Accession #AAC66244). The sequence submitted for mapping lacked the first 8 AA. The library was exposed to 8 sera containing antibodies against B. burgdorferi proteins, as determined by commercial Lyme immunostrips (Viramed Biotech AG, Planegg, Germany). IgM and IgG binding were independently evaluated, and data were reported in terms of fluorescent binding intensity. Peptides generated from epitope mapping data were produced by Lifetein, Inc (South Plainfield, N.J.). […]
(§2) Linear epitope mapping of DbpB was accomplished by probing overlapping peptide libraries containing full length sequences derived from the B31 strain of B. burgdorferi sensu stricto, with serum obtained from 8 Lyme disease patients with high levels of anti-Borrelia antibody as determined using commercially available Lyme disease immunoblot strips. […]

[2] = tested on: IgM in sera containing antibodies against B. burgdorferi proteins; assay: Epitope mapping of DbpB overlapping peptide library, IgM binding; parameters: species or system human; conditions: 8 high titer Lyme disease patient sera; 20-AA library peptides of DbpB, B. burgdorferi B31
Experimental: as §1, §2

Row | Substance | samples in which the peptide was bound by IgG [1] [%] | samples in which the peptide was bound by IgM [2] [%]
1 | DbpB(48-67): 20-AA library peptide of DbpB from B. burgdorferi B31; one of two overlapping peptides forming DbpB(38-67) (KKEATGKGVLFEAFTGLKTG) | 100 | 
2 | DbpB(38-57): 20-AA library peptide of DbpB from B. burgdorferi B31; one of two overlapping peptides forming DbpB(38-67) (KDLKNKILKIKKEATGKGVL) |  | 100

From US10006912B2, “Peptides for diagnosing lyme disease” (B[…]., priority 2013, dated 2018)
